ChEMBL document CHEMBL4680155, “One-pot synthesis and molecular docking of some new spiropyranindol-2-one derivatives as immunomodulatory agents and in vitro antimicrobial potential with DNA gyrase inhibitor” (Eur J Med Chem, 2020)
≈ marks a conversion by molar mass, not a printed value.

Key:
Enterococcus faecalis [1] = assay: Antibacterial activity against Enterococcus faecalis ATCC 29212 assessed as diameter of inhibition zone at 0.5 mg/ml incubated for 24 hrs by agar diffusion method; format: functional; settings: read-out: DIZ
Staphylococcus aureus [2] = assay: Antibacterial activity against Staphylococcus aureus ATCC 29213 assessed as diameter of inhibition zone at 0.5 mg/ml incubated for 24 hrs by agar diffusion method; format: functional; settings: read-out: DIZ
Escherichia coli [3] = assay: Antibacterial activity against Escherichia coli ATCC 25922 assessed as diameter of inhibition zone at 0.5 mg/ml incubated for 24 hrs by agar diffusion method; format: functional; settings: read-out: DIZ
Salmonella typhimurium [4] = assay: Antibacterial activity against Salmonella typhi ATCC 6539 assessed as diameter of inhibition zone at 0.5 mg/ml incubated for 24 hrs by agar diffusion method; format: functional, Salmonella enterica subsp. enterica serovar Typhimurium; settings: Salmonella enterica, read-out: DIZ
Candida albicans [5] = assay: Antifungal activity against Candida albicans ATCC 10231 assessed as diameter of inhibition zone at 0.5 mg/ml incubated for 24 hrs by agar diffusion method; format: functional; settings: read-out: DIZ
Aspergillus brasiliensis [6] = assay: Antifungal activity against Aspergillus brasiliensis ATCC 16404 assessed as diameter of inhibition zone at 0.5 mg/ml incubated for 72 hrs by agar diffusion method; format: functional; settings: read-out: DIZ
Enterococcus faecalis [7] = assay: Antibacterial activity against Enterococcus faecalis ATCC 29212 assessed as reduction in bacterial growth incubated for 1 day by paper disk diffusion method; format: functional; settings: ATCC 29212, 24 h
Staphylococcus aureus [8] = assay: Antibacterial activity against Staphylococcus aureus ATCC 29213 assessed as reduction in bacterial growth incubated for 1 day by paper disk diffusion method; format: functional; settings: ATCC 29213, 24 h
Escherichia coli [9] = assay: Antibacterial activity against Escherichia coli ATCC 25922 assessed as reduction in bacterial growth incubated for 1 day by paper disk diffusion method; format: functional; settings: ATCC 25922, 24 h
Salmonella typhimurium [10] = assay: Antibacterial activity against Salmonella typhi ATCC 6539 assessed as reduction in bacterial growth incubated for 1 day by paper disk diffusion method; format: functional, Salmonella enterica subsp. enterica serovar Typhimurium; settings: Salmonella enterica, ATCC 6539, 24 h
Candida albicans [11] = assay: Antifungal activity against Candida albicans ATCC 10231 assessed as reduction in bacterial growth incubated for 1 day by paper disk diffusion method; format: functional; settings: ATCC 10231, 24 h
Aspergillus brasiliensis [12] = assay: Antifungal activity against Aspergillus brasiliensis ATCC 16404 assessed as reduction in bacterial growth incubated for 3 days by paper disk diffusion method; format: functional; settings: ATCC 16404, 72 h, time 3 day
Enterococcus faecalis [13] = assay: Bactericidal activity against Enterococcus faecalis ATCC 29212 incubated for 24 hrs followed by transferring to freshly prepared broth medium and measured after 24 hrs by broth microdilution assay; format: functional; settings: time 48 hrs
Staphylococcus aureus [14] = assay: Bactericidal activity against Staphylococcus aureus ATCC 29213 incubated for 24 hrs followed by transferring to freshly prepared broth medium and measured after 24 hrs by broth microdilution assay; format: functional; settings: time 48 hrs
Escherichia coli [15] = assay: Bactericidal activity against Escherichia coli ATCC 25922 incubated for 24 hrs followed by transferring to freshly prepared broth medium and measured after 24 hrs by broth microdilution assay; format: functional; settings: time 48 hrs
Salmonella typhimurium [16] = assay: Bactericidal activity against Salmonella typhi ATCC 6539 incubated for 24 hrs followed by transferring to freshly prepared broth medium and measured after 24 hrs by broth microdilution assay; format: functional, Salmonella enterica subsp. enterica serovar […]; settings: Salmonella enterica, time 48 hrs
Candida albicans [17] = assay: Fungicidal activity against Candida albicans ATCC 10231 incubated for 24 hrs followed by transferring to freshly prepared broth medium and measured after 24 hrs by broth microdilution assay; format: functional; settings: time 48 hrs
Aspergillus brasiliensis [18] = assay: Fungicidal activity against Aspergillus brasiliensis ATCC 16404 incubated for 72 hrs followed by transferring to freshly prepared broth medium and measured after 24 hrs by broth microdilution assay; format: functional; settings: time 96 hrs
Staphylococcus aureus [19] = assay: Antibacterial activity against multidrug resistant Staphylococcus aureus ATCC 43300 assessed as diameter of inhibition zone at 0.5 mg/ml incubated for 24 hrs by agar diffusion method; format: functional; settings: read-out: DIZ
Staphylococcus aureus [20] = assay: Antibacterial activity against multidrug resistant Staphylococcus aureus ATCC 33591 assessed as diameter of inhibition zone at 0.5 mg/ml incubated for 24 hrs by agar diffusion method; format: functional; settings: read-out: DIZ
Escherichia coli [21] = assay: Antibacterial activity against multidrug resistant Escherichia coli ATCC BAA-196 assessed as diameter of inhibition zone at 0.5 mg/ml incubated for 24 hrs by agar diffusion method; format: functional; settings: read-out: DIZ
Pseudomonas aeruginosa [22] = assay: Antibacterial activity against multidrug resistant Pseudomonas aeruginosa ATCC BAA-2111 assessed as diameter of inhibition zone at 0.5 mg/ml incubated for 24 hrs by agar diffusion method; format: functional; settings: read-out: DIZ
Staphylococcus aureus [23] = assay: Antibacterial activity against multidrug resistant Staphylococcus aureus ATCC 43300 assessed as reduction in bacterial growth incubated for 1 day by paper disk diffusion method; format: functional; settings: ATCC 43300, 24 h
Staphylococcus aureus [24] = assay: Antibacterial activity against multidrug resistant Staphylococcus aureus ATCC 33591 assessed as reduction in bacterial growth incubated for 1 day by paper disk diffusion method; format: functional; settings: ATCC 33591, 24 h
Escherichia coli [25] = assay: Antibacterial activity against multidrug resistant Escherichia coli ATCC BAA-196 assessed as reduction in bacterial growth incubated for 1 day by paper disk diffusion method; format: functional; settings: ATCC BAA-196, 24 h
Pseudomonas aeruginosa [26] = assay: Antibacterial activity against multidrug resistant Pseudomonas aeruginosa ATCC BAA-2111 assessed as reduction in bacterial growth incubated for 1 day by paper disk diffusion method; format: functional; settings: ATCC BAA-2111, 24 h
Staphylococcus aureus [27] = assay: Bactericidal activity against Staphylococcus aureus ATCC 43300 incubated for 24 hrs followed by transferring to freshly prepared broth medium and measured after 24 hrs by broth microdilution assay; format: functional; settings: time 48 hrs
Staphylococcus aureus [28] = assay: Bactericidal activity against Staphylococcus aureus ATCC 33591 incubated for 24 hrs followed by transferring to freshly prepared broth medium and measured after 24 hrs by broth microdilution assay; format: functional; settings: time 48 hrs
Escherichia coli [29] = assay: Bactericidal activity against Escherichia coli ATCC BAA-196 incubated for 24 hrs followed by transferring to freshly prepared broth medium and measured after 24 hrs by broth microdilution assay; format: functional; settings: time 48 hrs
Pseudomonas aeruginosa [30] = assay: Bactericidal activity against Pseudomonas aeruginosa ATCC BAA-2111 incubated for 24 hrs followed by transferring to freshly prepared broth medium and measured after 24 hrs by broth microdilution assay; format: functional; settings: time 48 hrs
Neutrophil = assay: Immunomodulatory activity in human neutrophils infected with bacteria assessed as increase in bacterial killing by measuring reduced NBT incubated for 30 mins by NBT dye based spectrophotometry; format: functional; set-up: concentration or dose not given beside the values; settings: 0.5 h
DNA gyrase = DNA gyrase (Staphylococcus aureus, UniProt P0A0K8+P20831); assay: Inhibition of Staphylococcus aureus DNA gyrase using relaxed pBR322 DNA as substrate incubated for 45 mins by agarose gel electrophoresis method; format: protein-complex assay
Chain of DNA gyrase (P0A0K8 whole entry): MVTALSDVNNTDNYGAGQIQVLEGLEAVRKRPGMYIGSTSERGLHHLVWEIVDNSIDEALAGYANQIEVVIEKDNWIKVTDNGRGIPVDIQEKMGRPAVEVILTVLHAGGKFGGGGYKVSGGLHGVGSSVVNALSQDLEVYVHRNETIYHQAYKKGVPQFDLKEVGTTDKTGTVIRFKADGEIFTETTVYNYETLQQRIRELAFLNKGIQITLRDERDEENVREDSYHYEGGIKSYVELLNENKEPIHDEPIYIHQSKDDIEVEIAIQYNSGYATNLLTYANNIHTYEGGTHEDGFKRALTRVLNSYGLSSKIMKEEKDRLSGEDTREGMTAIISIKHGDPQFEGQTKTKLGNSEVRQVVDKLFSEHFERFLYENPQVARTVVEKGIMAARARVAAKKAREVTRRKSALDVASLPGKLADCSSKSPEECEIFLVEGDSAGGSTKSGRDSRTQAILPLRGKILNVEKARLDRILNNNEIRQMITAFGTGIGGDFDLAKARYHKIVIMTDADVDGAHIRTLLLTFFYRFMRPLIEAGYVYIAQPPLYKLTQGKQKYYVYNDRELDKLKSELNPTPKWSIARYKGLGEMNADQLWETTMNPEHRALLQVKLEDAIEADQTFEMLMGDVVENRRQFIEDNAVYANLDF
Chain of DNA gyrase (P20831 whole entry): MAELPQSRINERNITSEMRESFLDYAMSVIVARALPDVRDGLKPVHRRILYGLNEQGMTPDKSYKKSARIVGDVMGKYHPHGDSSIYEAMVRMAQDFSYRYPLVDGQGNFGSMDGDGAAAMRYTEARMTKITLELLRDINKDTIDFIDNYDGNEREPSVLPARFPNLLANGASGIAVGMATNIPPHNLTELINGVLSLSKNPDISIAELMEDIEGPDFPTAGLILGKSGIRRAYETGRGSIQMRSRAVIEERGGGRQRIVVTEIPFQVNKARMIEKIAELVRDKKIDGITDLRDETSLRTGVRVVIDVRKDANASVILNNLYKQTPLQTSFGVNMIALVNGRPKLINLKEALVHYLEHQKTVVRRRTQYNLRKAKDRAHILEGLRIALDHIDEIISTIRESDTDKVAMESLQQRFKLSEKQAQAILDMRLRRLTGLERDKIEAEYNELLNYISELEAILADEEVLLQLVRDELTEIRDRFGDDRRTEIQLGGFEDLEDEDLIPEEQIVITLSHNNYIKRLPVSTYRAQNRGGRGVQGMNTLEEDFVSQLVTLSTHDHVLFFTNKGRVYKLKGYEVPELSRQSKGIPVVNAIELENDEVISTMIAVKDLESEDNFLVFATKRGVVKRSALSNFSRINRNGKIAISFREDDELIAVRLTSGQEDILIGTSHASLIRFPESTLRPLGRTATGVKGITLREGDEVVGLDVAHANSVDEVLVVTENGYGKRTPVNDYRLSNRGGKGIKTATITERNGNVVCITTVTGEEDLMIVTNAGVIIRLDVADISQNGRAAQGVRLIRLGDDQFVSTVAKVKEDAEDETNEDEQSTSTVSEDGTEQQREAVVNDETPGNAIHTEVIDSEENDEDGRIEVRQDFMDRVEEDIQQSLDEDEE

Row | Compound | zone of inhibition at 500 µg/mL (Enterococcus faecalis [1]) [mm] | zone of inhibition at 500 µg/mL (Staphylococcus aureus [2]) [mm] | zone of inhibition at 500 µg/mL (Escherichia coli [3]) [mm] | zone of inhibition at 500 µg/mL (Salmonella typhimurium [4]) [mm] | zone of inhibition at 500 µg/mL (Candida albicans [5]) [mm] | zone of inhibition at 500 µg/mL (Aspergillus brasiliensis [6]) [mm] | MIC (Enterococcus faecalis [7]) [µg/mL] | MIC (Staphylococcus aureus [8]) [µg/mL] | MIC (Escherichia coli [9]) [µg/mL] | MIC (Salmonella typhimurium [10]) [µg/mL] | MIC (Candida albicans [11]) [µg/mL] | MIC (Aspergillus brasiliensis [12]) [µg/mL] | MBC (Enterococcus faecalis [13]) [µg/mL] | MBC (Staphylococcus aureus [14]) [µg/mL] | MBC (Escherichia coli [15]) [µg/mL] | MBC (Salmonella typhimurium [16]) [µg/mL] | MFC (Candida albicans [17]) [µg/mL] | MFC (Aspergillus brasiliensis [18]) [µg/mL] | zone of inhibition at 500 µg/mL (Staphylococcus aureus [19]) [mm] | zone of inhibition at 500 µg/mL (Staphylococcus aureus [20]) [mm] | further results
1 | CCOC(=O)C1=C(c2ccccc2)OC(N)=C(C#N)C12C(=O)Nc1ccc(S(=O)(=O)N3CCCCC3)cc12 (stereo unspecified) | 24 | 21 | 23 | 24 | 22 | 20 | 15.6 (≈ 29.2 µM) | 71.1 (≈ 133 µM) | 15.6 (≈ 29.2 µM) | 15.6 (≈ 29.2 µM) | 12.5 (≈ 23.4 µM) | 62.5 (≈ 117 µM) | 31.2 (≈ 58.4 µM) | 99.5 (≈ 186 µM) | 21.9 (≈ 40.9 µM) | 20.3 (≈ 38 µM) | 25 (≈ 46.8 µM) | 125 (≈ 234 µM) | 24 | 25 | zone of inhibition at 500 µg/mL (Escherichia coli [21]): 26 mm; zone of inhibition at 500 µg/mL (Pseudomonas aeruginosa [22]): 24 mm; MIC (Staphylococcus aureus [23]): 1.95 µg/mL (≈ 3.65 µM); MIC (Staphylococcus aureus [24]): 1.95 µg/mL (≈ 3.65 µM); MIC (Escherichia coli [25]): 1.57 µg/mL (≈ 2.94 µM); MIC (Pseudomonas aeruginosa [26]): 3.9 µg/mL (≈ 7.3 µM); MBC (Staphylococcus aureus [27]): 2.92 µg/mL (≈ 5.46 µM); MBC (Staphylococcus aureus [28]): 3.31 µg/mL (≈ 6.19 µM); MBC (Escherichia coli [29]): 2.35 µg/mL (≈ 4.4 µM); MBC (Pseudomonas aeruginosa [30]): 6.24 µg/mL (≈ 11.7 µM); Activity (Neutrophil): 95.4%; IC50 (DNA gyrase): 19.8 µM
2 | CCOC(=O)C1=C(N)OC(c2ccccc2)=C(C(C)=O)C12C(=O)Nc1ccc(S(=O)(=O)N3CCOCC3)cc12 (stereo unspecified) | 25 | 23 | 25 | 23 | 24 | 21 | 12.5 (≈ 22.6 µM) | 62.5 (≈ 113 µM) | 6.25 (≈ 11.3 µM) | 35.5 (≈ 64.2 µM) | 17.8 (≈ 32.1 µM) | 35.5 (≈ 64.2 µM) | 25 (≈ 45.2 µM) | 81.2 (≈ 147 µM) | 12.5 (≈ 22.6 µM) | 49.8 (≈ 89.9 µM) | 24.9 (≈ 44.9 µM) | 71.1 (≈ 128 µM) | 23 | 24 | zone of inhibition at 500 µg/mL (Escherichia coli [21]): 24 mm; zone of inhibition at 500 µg/mL (Pseudomonas aeruginosa [22]): 25 mm; MIC (Staphylococcus aureus [23]): 3.9 µg/mL (≈ 7.04 µM); MIC (Staphylococcus aureus [24]): 3.9 µg/mL (≈ 7.04 µM); MIC (Escherichia coli [25]): 3.9 µg/mL (≈ 7.04 µM); MIC (Pseudomonas aeruginosa [26]): 2.6 µg/mL (≈ 4.7 µM); MBC (Staphylococcus aureus [27]): 7.8 µg/mL (≈ 14.1 µM); MBC (Staphylococcus aureus [28]): 7.8 µg/mL (≈ 14.1 µM); MBC (Escherichia coli [29]): 6.24 µg/mL (≈ 11.3 µM); MBC (Pseudomonas aeruginosa [30]): 5.2 µg/mL (≈ 9.39 µM); Activity (Neutrophil): 95.6%; IC50 (DNA gyrase): 20.1 µM
3 | CCOC(=O)/C(C#N)=C1\C(=O)Nc2ccc(S(=O)(=O)N3CCOCC3)cc21 | 24 | 25 | 26 | 24 | 23 | 18 | 3.9 (≈ 9.96 µM) | 15.6 (≈ 39.9 µM) | 3.9 (≈ 9.96 µM) | 31.2 (≈ 79.8 µM) | 6.25 (≈ 16 µM) | 88.3 (≈ 226 µM) | 7.8 (≈ 19.9 µM) | 21.9 (≈ 55.9 µM) | 7.8 (≈ 19.9 µM) | 62.5 (≈ 160 µM) | 10.6 (≈ 27.1 µM) | 124 (≈ 316 µM) | 25 | 25 | zone of inhibition at 500 µg/mL (Escherichia coli [21]): 26 mm; zone of inhibition at 500 µg/mL (Pseudomonas aeruginosa [22]): 24 mm; MIC (Staphylococcus aureus [23]): 1.95 µg/mL (≈ 4.98 µM); MIC (Staphylococcus aureus [24]): 1.95 µg/mL (≈ 4.98 µM); MIC (Escherichia coli [25]): 1.57 µg/mL (≈ 4.01 µM); MIC (Pseudomonas aeruginosa [26]): 3.9 µg/mL (≈ 9.96 µM); MBC (Staphylococcus aureus [27]): 3.12 µg/mL (≈ 7.97 µM); MBC (Staphylococcus aureus [28]): 3.7 µg/mL (≈ 9.45 µM); MBC (Escherichia coli [29]): 3.14 µg/mL (≈ 8.02 µM); MBC (Pseudomonas aeruginosa [30]): 7.8 µg/mL (≈ 19.9 µM); Activity (Neutrophil): 152.3%; IC50 (DNA gyrase): 27 µM
